According to patent US8802723B2, “Metabolic syndrome-improving agent and medicine, supplement, functional food and food additive containing the same” (ARKRAY, Inc., priority 2005, dated 2014):

Experiments:
Type in all cases: cell-based
[1] = test system: aP2 mRNA; assay: aP2 mRNA expression in differentiated 3T3-L1 adipocytes (Light Cycler); settings: 3T3-L1, 7 days after differentiation induction, non-treatment control = 100, average ± standard error
Protocol: (§1) Differentiation Induction Medium (0.25 μM DEX, 0.5 mM MIX, 10 μg/mL Insulin/10% FBS/DMEM)
(§2) 55 mL of FBS (fetal bovine serum (manufactured by GIBCO)) was added to 500 mL of DMEM (manufactured by SIGMA) so as to prepare 10% FBS/DMEM. To this 10% FBS/DMEM, 138.75 μL of 1 mM DEX (dexamethasone)/DMSO (manufactured by Nacalai Tesque, Inc.) and 555 μL of 10 mg/mL insulin/PBS (manufactured by SIGMA) were added. Incidentally, the insulin/PBS was obtained by adding 1N HCl to PBS in advance so as to make the solution acidic enough to allow insulin dissolution and then dissolving insulin. […]
(§3) Next, culture preadipocytes 3T-L1 were thawed, inoculated in a 100 mm dish and cultured until 3T3-L 1 cells reached about 80% confluence. […] 7 days after the initiation of the differentiation induction, mRNA was extracted using Sepasol(R)—RNA I super (manufactured by Nacalai Tesque, Inc.), and the mRNA expression amounts of 36B4, aP2 and adiponectin, which were indicators of an early period of adipocyte differentiation, were measured using Light Cycler™. Also, the medium 7 days after the differentiation induction was taken in an amount of 1 mL from each well, and the amount of adiponectin in the medium supernatant was measured using a mouse/rat adiponectin ELISA kit (trade name) (manufactured by Otsuka Pharmaceutical Co., Ltd.). […]

[2] = test system: adiponectin mRNA; assay: adiponectin mRNA expression in differentiated 3T3-L1 adipocytes (Light Cycler); settings: 3T3-L1, 7 days after differentiation induction, non-treatment control = 100, average ± standard error
Protocol: as §1, §2, §3

[3] = test system: adiponectin secretion in 3T3-L1 cells; assay: adiponectin secretion amount of 3T3-L1 adipocytes by ELISA; settings: for Adiponectin secretion amount: 3T3-L1 medium supernatant 7 days after differentiation induction, non-treatment control 3.49 ± 0.78, average ± standard error
Protocol: Next, culture preadipocytes 3T-L1 were thawed, inoculated in a 100 mm dish and cultured until 3T3-L 1 cells reached about 80% confluence. A single dish of 3T3-L1 that had reached about 80% confluence was subcultured to a single 6-well plate and further cultured until the 3T3-L1 cells reached confluence in the 6-well plate, and then the medium was replaced with the differentiation induction medium, followed by differentiation induction. 48 hours later, the medium was replaced with the differentiation promotion medium, and thereafter, the medium was replaced with the differentiation promotion medium every two days. 7 days after the initiation of the differentiation induction, mRNA was extracted using Sepasol(R)—RNA I super (manufactured by Nacalai Tesque, Inc.), and the mRNA expression amounts of 36B4, aP2 and adiponectin, which were indicators of an early period of adipocyte differentiation, were measured using Light Cycler™. Also, the medium 7 days after the differentiation induction was taken in an amount of 1 mL from each well, and the amount of adiponectin in the medium supernatant was measured using a mouse/rat adiponectin ELISA kit (trade name) (manufactured by Otsuka Pharmaceutical Co., Ltd.). […]
Only the strips of the antibody plates necessary for the analysis were taken out. […] 100 μL of the standard solutions with respective concentrations and 100 μL of the diluted analytes were added to individual wells and measured in duplicate. Incidentally, the standard solutions always were measured for each measurement and each plate. […] After 100 μL of the substrate solution was added to each well of the antibody plate and allowed to stand still for reaction for 15 minutes at room temperature, 100 μL of the reaction stop solution was added to each well of the antibody plate, and then the absorbance at 450 nm in each well was measured with a plate reader.

In the case of `CC(C)=CCC/C(C)=C/COc1ccc2ccc(=O)oc2c1` [Aurapten, aurapten], the “aP2 mRNA expression amount (ratio to 36B4)” value ([1]; aurapten 1 μM) was 208.2 ± 23.4, the “aP2 mRNA expression amount (ratio to 36B4)” value ([1]; aurapten 5 μM) was 202.7 ± 19.3 and the “Adiponectin mRNA expression amount (ratio to 36B4)” value ([2]; aurapten 1 μM) was 144.5 ± 26.7. For the same compound, the “Adiponectin mRNA expression amount (ratio to 36B4)” value ([2]; aurapten 5 μM) was 161.4 ± 40.2, the Adiponectin secretion amount ([3]; aurapten 1 μM) was 3.64 ± 0.82 and the Adiponectin secretion amount ([3]; aurapten 5 μM) was 4.69 ± 0.16. The “effect on adiponectin secretion in adipocytes (in words)” value ([3]; compared with non-treated control medium) was “enhance the secretion of adiponectin”.
